Measured values reported in US20220000841A1, “INHIBITORS OF METALLO-BETA-LACTAMASES” (CENTRE NATIONAL DE LA RECHERCHE SCIENTIFIQUE, priority 2018, published 2022).
Read-outs that look alike come from different tables or passages of the source.

Key:
[1] = target: VIM-4 (Pseudomonas aeruginosa, UniProt Q8KRJ3); assay: Enzymatic assay for determination of inhibition constants, reporter substrate method, purified VIM-4; format: biochemical; details: at 100 μM (maximal tested concentration);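 note: purified VIM-4 (1-70 nM) in 50 mM HEPES pH 7.5, reporter substrate hydrolysis rate tracked by absorbance change (nitrocefin 482 nm, imipenem or meropenem 300 nm, cefotaxime 260 nm)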
Method: (§1) The reaction rate was measured as the variation of absorbance observed upon substrate hydrolysis in a UV-Vis spectrophotometer or microplate reader at a wavelength of 300 nm (imipenem, meropenem), 260 nm (cefotaxime) or 482 nm (nitrocefin) in 50 mM HEPES buffer (pH 7.5) and in the presence of a purified MBL enzyme (such as VIM-1, VIM-2, VIM-4, NDM-1 and IMP-1, at a final concentration ranging 1-70 nM).
(§2) The inhibition constants (Ki) were determined on the basis of a model of competitive inhibition by analyzing the dependence of the ratio v0/vi (v0, hydrolysis velocity in the absence of inhibitor; vi, hydrolysis velocity in the presence of inhibitor) as a function of [I] as already described [Docquier J. D., Lamotte-Brasseur J., Galleni M., Amicosante G., Frère J. M., Rossolini G. M. (2003) J. Antimicrob. […] The slope of the plot of v0/vi vs [I], which corresponds to Km^S/(Km^S+[S])Ki (where Km^S is the Km value of the reporter substrate and [S] its concentration in the reaction mixture) and allowed the calculation of the Ki value. Alternatively, a Dixon plot analysis was carried out, by measuring the initial hydrolysis rates in the presence of variable concentrations of inhibitor and substrate.

[2] = target: IMP-1 (Serratia marcescens, UniProt P52699); assay: Enzymatic assay for determination of inhibition constants, reporter substrate method, purified IMP-1; format: biochemical; details: for Ki: isolated MBL, competitive inhibition model; for % inhibition IMP-1: at 200 μM (maximal tested concentration);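 for all read-outs here: purified IMP-1 (1-70 nM) hydrolysing a reporter substrate, initial rates followed as absorbance change at 260, 300 or 482 nm in 50 mM HEPES pH 7.5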
[3] = target: VIM-2 (Escherichia coli, UniProt Q5U7L7); assay: Enzymatic assay for determination of inhibition constants, reporter substrate method, purified VIM-2; format: biochemical;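 note: purified VIM-2 hydrolysing a reporter substrate (imipenem, meropenem, cefotaxime or nitrocefin), reaction rate read as absorbance change, HEPES 50 mM at pH 7.5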
Method: as §1, §2

[4] = target: VIM-1 (Pseudomonas aeruginosa, UniProt A0A0F7KYQ8); assay: Enzymatic assay for determination of inhibition constants, reporter substrate method, purified VIM-1; format: biochemical; details: for Ki: isolated MBL, competitive inhibition model;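 for all read-outs here: initial hydrolysis rates of a reporter β-lactam (imipenem, meropenem, cefotaxime or nitrocefin) followed by absorbance change, purified enzyme at 1–70 nM in 50 mM HEPES pH 7.5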
Method: as §1, §2

[5] = target: NDM-1 (Klebsiella pneumoniae, UniProt C7C422); assay: Enzymatic assay for determination of inhibition constants, reporter substrate method, purified NDM-1; format: biochemical; details: for Ki: isolated MBL, competitive inhibition model;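 for all read-outs here: purified enzyme activity followed as absorbance change from reporter substrate hydrolysis on a UV-Vis spectrophotometer or plate reader, 50 mM HEPES pH 7.5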
Method: as §1, §2

[6] = isolated MBL, competitive inhibition model, read-out: Ki VIM-2
[7] = at 200 μM (maximal tested concentration)
[8] = at 100 μM (maximal tested concentration)
[9] = as listed in Table 2, read-out: Ki on VIM-2

Chain of NDM-1 (C7C422 29-270, looked up, species assumed): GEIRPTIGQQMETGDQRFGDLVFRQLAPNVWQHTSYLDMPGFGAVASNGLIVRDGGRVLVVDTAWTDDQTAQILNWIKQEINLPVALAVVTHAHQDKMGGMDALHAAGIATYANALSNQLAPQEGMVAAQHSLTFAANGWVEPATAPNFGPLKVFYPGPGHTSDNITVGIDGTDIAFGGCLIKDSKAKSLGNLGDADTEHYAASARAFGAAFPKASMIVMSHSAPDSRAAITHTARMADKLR
Chain of IMP-1 (P52699 19-246, looked up, species assumed): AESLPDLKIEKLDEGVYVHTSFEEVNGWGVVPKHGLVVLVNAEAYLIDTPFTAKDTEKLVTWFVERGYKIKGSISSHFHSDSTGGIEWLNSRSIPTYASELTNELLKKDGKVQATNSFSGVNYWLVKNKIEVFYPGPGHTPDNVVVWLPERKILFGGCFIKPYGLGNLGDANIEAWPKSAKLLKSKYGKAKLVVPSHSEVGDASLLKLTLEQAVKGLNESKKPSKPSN

Oc1ccc(CCn2c(-c3ccccc3)n[nH]c2=S)cc1 [Compound 31, 4-[2-(4-hydroxyphenyl)ethyl]-3-phenyl-4,5-dihydro-1H-1,2,4-triazole-5-thione]
% inhibition VIM-4 [1]: 70% at 100 μM | Ki [2]: 10 to 100 µM | Ki [3, 6]: 1 to 10 µM | Ki [4]: 1 to 10 µM | Ki [5]: 10 to 100 µM

CC(C)(C)OC(=O)NC(CCCn1c(-c2ccccc2)n[nH]c1=S)C(=O)O (centres unmarked) [Compound 25, 2-{[(tert-butoxy)carbonyl]amino}-5-(3-phenyl-5-sulfanylidene-4,5-dihydro-1H-1,2,4-triazol-4-yl)pentanoic acid]
melting point: 105 to 106 °C | % inhibition VIM-4 [1]: 85% at 100 μM | Ki [2]: > 100 µM | Ki [3, 6]: 1 to 10 µM | Ki [5]: > 100 µM

COc1cccc(-c2n[nH]c(=S)n2CCCC(=O)O)c1 [Compound 24, 4-[3-(3-methoxyphenyl)-5-sulfanylidene-4,5-dihydro-1H-1,2,4-triazol-4-yl]butanoic acid]
melting point: 159 to 160 °C | % inhibition VIM-4 [1]: 85% at 100 μM | Ki [2]: > 100 µM | % inhibition VIM-2 [3, 7]: 70% at 200 μM | Ki [5]: > 100 µM

O=C(O)c1ccccc1CCn1c(-c2ccc(OCc3ccccc3)cc2)n[nH]c1=S [Compound 40, 5-(4-Benzyloxyphenyl)-4-[2-(2-carboxyphenyl)ethyl]-1,2,4-triazole-3-thione]
Ki [2]: > 100 µM | Ki [3, 6]: < 1 µM | Ki [4]: > 100 µM | Ki [5]: > 100 µM

COc1ccc(O)c(-c2n[nH]c(=S)n2CCCCC(=O)O)c1 [Compound 29, 5-[3-(2-hydroxy-5-methoxyphenyl)-5-sulfanylidene-4,5-dihydro-1H-1,2,4-triazol-4-yl]pentanoic acid]
melting point: 155 to 156 °C | % inhibition VIM-4 [1]: 90% at 100 μM | Ki [2]: > 100 µM | % inhibition VIM-2 [3, 7]: 60% at 200 μM | Ki [5]: > 100 µM

O=C(O)CCCCCn1c(-c2ccccc2)n[nH]c1=S [Compound 45, 6-(3-Phenyl-5-sulfanylidene-4,5-dihydro-1H-1,2,4-triazol-4-yl)hexanoic acid]
melting point: 136 to 137 °C | % inhibition VIM-4 [1]: 85% at 100 μM | Ki [2]: > 100 µM | Ki [3, 6]: < 1 µM | % inhibition NDM-1 [5, 8]: 55% at 100 μM

Cc1ccccc1-c1n[nH]c(=S)n1CCc1ccccc1 [Compound 6, 3-(2-methylphenyl)-4-(2-phenylethyl)-4,5-dihydro-1H-1,2,4-triazole-5-thione]
% inhibition VIM-4 [1]: 50% at 100 μM | % inhibition IMP-1 [2]: 80% at 200 μM | % inhibition VIM-2 [3, 7]: 60% at 200 μM | % inhibition VIM-1 [4, 7]: 60% at 200 μM | Ki [5]: > 100 µM

O=C(O)c1ccccc1CNn1c(-c2ccccc2)n[nH]c1=S [Compound 5, 2-{[(3-phenyl-5-sulfanylidene-4,5-dihydro-1H-1,2,4-triazol-4-yl)amino]methyl}benzoic acid]
Ki [2]: > 100 µM | Ki [3, 9]: 1 to 10 µM | Ki [3, 6]: 1 to 10 µM | Ki [4]: > 100 µM | Ki [5]: > 100 µM

O=C(O)c1ccccc1CCn1c(-c2ccccc2)n[nH]c1=S [Compound 1, 2-[2-(3-phenyl-5-sulfanylidene-4,5-dihydro-1H-1,2,4-triazol-4-yl)ethyl]benzoic acid]
melting point: 220 to 221 °C | Ki [2]: > 100 µM | Ki [3, 9]: < 1 µM | Ki [3, 6]: < 1 µM | Ki [4]: > 100 µM | Ki [5]: > 100 µM

O=C(O)CC1(Cn2c(-c3ccccc3)n[nH]c2=S)CCCCC1 [Compound 17, 2-{1-[(3-phenyl-5-sulfanylidene-4,5-dihydro-1H-1,2,4-triazol-4-yl)methyl]cyclohexyl}acetic acid]
melting point: 80 to 81 °C | % inhibition VIM-4 [1]: 60% at 100 μM | Ki [2]: > 100 µM | Ki [3, 6]: 1 to 10 µM | Ki [5]: > 100 µM

CCCCn1c(-c2ccccc2)n[nH]c1=S [Compound 32, 4-butyl-3-phenyl-4,5-dihydro-1H-1,2,4-triazole-5-thione]
melting point: 128 to 129 °C | % inhibition VIM-4 [1]: 75% at 100 μM | Ki [2]: 10 to 100 µM | Ki [3, 6]: 1 to 10 µM | Ki [5]: > 100 µM

O=C(O)c1ccc(Cn2c(-c3ccccc3)n[nH]c2=S)cc1 [Compound 55, p-[(3-Phenyl-5-thioxo-1,4-dihydro-1,2,4-triazol-4-yl)methyl]benzoic acid]
% inhibition VIM-4 [1]: 80% at 100 μM | Ki [2]: > 100 µM | % inhibition VIM-2 [3, 7]: 80% at 200 μM | Ki [5]: > 100 µM

Oc1ccc(CCn2c(-c3ccccc3)n[nH]c2=S)c(O)c1 [Compound 41, 4-[2-(2,4-Dihydroxyphenyl)ethyl]-5-phenyl-1,2,4-triazole-3-thione]
Ki [2]: 10 to 100 µM | Ki [3, 6]: > 100 µM | Ki [4]: > 100 µM | Ki [5]: 10 to 100 µM

COc1ccc(O)c(-c2n[nH]c(=S)n2Cc2ccccc2)c1 [Compound 7, 4-benzyl-3-(2-hydroxy-5-methoxyphenyl)-4,5-dihydro-1H-1,2,4-triazole-5-thione]
Ki [2]: > 100 µM | Ki [3, 6]: 1 to 10 µM | Ki [4]: < 1 µM | Ki [5]: > 100 µM

Cn1cccc1-c1n[nH]c(=S)n1CCc1ccccc1C(=O)O [Compound 44]
% inhibition VIM-4 [1]: 80% at 100 μM | Ki [2]: > 100 µM | Ki [3, 6]: < 1 µM | Ki [5]: > 100 µM

O=C(O)CC(Cn1c(-c2ccccc2)n[nH]c1=S)c1ccccc1 (centres unmarked) [Compound 46, 3-Phenyl-4-(3-phenyl-5-thioxo-1,4-dihydro-1,2,4-triazol-4-yl)butyric acid]
Ki [2]: > 100 µM | Ki [3, 6]: > 100 µM | Ki [4]: > 100 µM | Ki [5]: > 100 µM

COc1ccc(O)c(-c2n[nH]c(=S)n2CCc2ccccc2)c1 [Compound 10, 3-(2-hydroxy-5-methoxyphenyl)-4-(2-phenylethyl)-4,5-dihydro-1H-1,2,4-triazole-5-thione]
Ki [2]: 10 to 100 µM | Ki [3, 6]: 1 to 10 µM | Ki [4]: 1 to 10 µM | Ki [5]: 1 to 10 µM

FC(F)(F)c1cc(SCCn2c(-c3ccccc3)n[nH]c2=S)c2ccccc2n1 [Compound 28, 3-phenyl-4-(2-{[2-(trifluoromethyl)quinolin-4-yl]sulfanyl}ethyl)-4,5-dihydro-1H-1,2,4-triazole-5-thione]
melting point: 184 to 185 °C | Ki [2]: > 100 µM | Ki [3, 6]: > 100 µM | Ki [5]: 10 to 100 µM

[N-]=[N+]=NCCn1c(-c2ccccc2)n[nH]c1=S [Compound 49, 4-(2-Azidoethyl)-3-phenyl-4,5-dihydro-1H-1,2,4-triazole-5-thione]
melting point: 108 to 109 °C | % inhibition IMP-1 [2]: 90% at 200 μM | Ki [3, 6]: > 100 µM | Ki [5]: > 100 µM

Cc1nnsc1-c1n[nH]c(=S)n1CCc1ccccc1C(=O)O [Compound 23, 2-{2-[3-(4-methyl-1,2,3-thiadiazol-5-yl)-5-sulfanylidene-4,5-dihydro-1H-1,2,4-triazol-4-yl]ethyl}benzoic acid]
melting point: 195 to 196 °C | % inhibition IMP-1 [2]: 95% at 200 μM | Ki [3, 6]: > 100 µM | Ki [5]: > 100 µM

O=C(O)CCCn1c(-c2cccc(-c3ccccc3)c2)n[nH]c1=S [Compound 38, 5-(3-Biphenyl)-4-[3-carboxypropanyl]-1,2,4-triazole-3-thione]
Ki [2]: > 100 µM | Ki [3, 6]: < 1 µM | Ki [4]: > 100 µM | Ki [5]: > 100 µM

O=C(O)c1ccccc1CCn1c(-c2ccc[nH]2)n[nH]c1=S [Compound 57, o-{2-[3-(1H-Pyrrol-2-yl)-5-thioxo-1,4-dihydro-1,2,4-triazol-4-yl]ethyl}benzoic acid]
% inhibition VIM-4 [1]: 65% at 100 μM | Ki [2]: > 100 µM | % inhibition VIM-2 [3, 7]: 80% at 200 μM | % inhibition NDM-1 [5, 7]: 60% at 200 μM

O=C(O)CCCn1c(-c2ccccc2)n[nH]c1=S [Compound 2, 4-(3-phenyl-5-sulfanylidene-4,5-dihydro-1H-1,2,4-triazol-4-yl)butanoic acid]
Ki [2]: > 100 µM | Ki [3, 9]: 1 to 10 µM | Ki [3, 6]: 1 to 10 µM | Ki [4]: > 100 µM | Ki [5]: > 100 µM

O=C(O)c1ccccc1CCn1c(-c2ccc3ccccc3n2)n[nH]c1=S [Compound 36, 2-{2-[3-(Quinolin-2-yl)-5-sulfanylidene-4,5-dihydro-1H-1,2,4-triazol-4-yl]ethyl}benzoic acid]
% inhibition VIM-4 [1]: 85% at 100 μM | Ki [2]: > 100 µM | Ki [3, 6]: > 100 µM | Ki [5]: > 100 µM

O=C(O)c1ccccc1CNn1c(-c2ccc3ccccc3c2)n[nH]c1=S [Compound 16, 2-({[3-(naphthalen-2-yl)-5-sulfanylidene-4,5-dihydro-1H-1,2,4-triazol-4-yl]amino}methyl)benzoic acid]
melting point: 213 to 214 °C | Ki [2]: > 100 µM | Ki [3, 6]: 1 to 10 µM | Ki [4]: > 100 µM | Ki [5]: > 100 µM

S=c1[nH]nc(-c2ccccc2)n1CCc1ccccc1 [Compound 11, 3-phenyl-4-(2-phenylethyl)-4,5-dihydro-1H-1,2,4-triazole-5-thione]
% inhibition VIM-4 [1]: 75% at 100 μM | Ki [2]: 1 to 10 µM | Ki [3, 6]: > 100 µM | % inhibition VIM-1 [4, 7]: 75% at 200 μM | Ki [5]: > 100 µM

Cn1cccc1-c1n[nH]c(=S)n1CCCC(=O)O [Compound 48, 4-[3-(1-Methyl-1H-pyrrol-2-yl)-5-thioxo-1,4-dihydro-1,2,4-triazol-4-yl]butyric acid]
% inhibition VIM-4 [1]: 75% at 100 μM | Ki [2]: > 100 µM | Ki [3, 6]: > 100 µM | Ki [5]: > 100 µM

S=c1[nH]nc(-c2ccccc2)n1CCCSc1ccccc1 [Compound 79, 5-Phenyl-4-[3-(phenylthio)propyl]-2,4-dihydro-1,2,4-triazole-3-thione]
% inhibition VIM-4 [1]: 71% at 100 μM | Ki [2]: > 100 µM | % inhibition VIM-2 [3, 8]: 72% at 100 μM | % inhibition VIM-1 [4, 8]: 82% at 100 μM | Ki [5]: > 100 µM

Oc1ccc(CCn2c(-c3ccccc3-c3ccccc3)n[nH]c2=S)c(O)c1 [Compound 43, 5-(2-Biphenyl)-4-[2-(2,4-dihydroxyphenyl)ethyl]-1,2,4-triazole-3-thione]
Ki [2]: > 100 µM | Ki [3, 6]: > 100 µM | Ki [4]: > 100 µM | Ki [5]: 10 to 100 µM
